Experimental data published in US9834520B2, “Heterocyclic compound” (TAKEDA PHARMACEUTICAL COMPANY LIMITED, priority 2013, dated 2017).

Key:
[1] = target: T1, RORγt (Homo sapiens, UniProt P51449); test: Cofactor recruitment test (Alpha Screen, biotinylated SRC-1 peptide); format: biochemical; conditions: test compound 1 μM; for inhibition at 1 µM: read-out: signal value inhibitory rate (%)
T1 sequence (P51449 1-497 isoform P51449-2): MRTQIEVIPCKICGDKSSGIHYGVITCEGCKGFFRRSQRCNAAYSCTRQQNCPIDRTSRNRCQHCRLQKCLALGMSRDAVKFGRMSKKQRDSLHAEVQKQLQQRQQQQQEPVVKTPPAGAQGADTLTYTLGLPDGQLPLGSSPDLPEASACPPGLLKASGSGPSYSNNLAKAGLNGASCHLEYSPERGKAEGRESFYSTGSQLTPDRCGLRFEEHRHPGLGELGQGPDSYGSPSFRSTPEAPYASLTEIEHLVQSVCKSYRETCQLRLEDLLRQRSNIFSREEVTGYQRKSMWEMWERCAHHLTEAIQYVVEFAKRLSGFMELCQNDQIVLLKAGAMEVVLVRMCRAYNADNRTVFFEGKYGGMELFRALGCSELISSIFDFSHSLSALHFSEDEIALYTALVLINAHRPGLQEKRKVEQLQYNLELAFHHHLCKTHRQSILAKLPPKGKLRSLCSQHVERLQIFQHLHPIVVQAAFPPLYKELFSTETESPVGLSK
Procedure: Cofactor Recruitment Test
Cofactor recruitment test was performed by Alpha Screen (Histidine Detection Kit, PerkinElmer) method. First, a test compound diluted with an assay buffer (50 mM Tris-HCl (pH 7.5), 50 mM KCl, 1 mM DTT, 0.1% BSA) was added to a 384 well plate by 5 μL each. […] The mixture was stood in a dark place for 1 hr, and the signal value was measured by Envision (PerkinElmer).

[2] = target: T1, RORγt; test: Jurkat reporter test (IL-17 ROR response element luciferase); format: cell-based; set-up: expressed in transfected cells; host or cells: Jurkat cells; conditions: test compound 3 μM, Jurkat cells; for inhibition at 3 µM: Jurkat, read-out: luminescence level inhibitory rate (%)
Procedure: The Jurkat cells used for the reporter test were cultured in a culture medium (RPMI (Invitrogen), 10% FCS (AusGeneX), 100 U/mL penicillin, 100 μg/mL streptomycin). On the day of the test, 4×10^7 cells were recovered by a centrifugal operation (1000 rpm, 5 min.) and suspended in PBS (phosphate buffered saline) (Invitrogen). Thereafter, the cells were recovered again by a centrifugal operation, and suspended in 2 mL of R buffer (NEON transfection kit, Invitrogen). […] Gene transfer was performed by Electroporation apparatus (NEON, Invitrogen) under the conditions of pulse voltage 1350 V, interval 10 milliseconds, number of times 3. The cells after gene transfer were suspended in 40 mL of a reaction medium (RPMI, 10% Lipid reduced FCS (HyClone), 10 mM HEPES (pH 7.5), 100 U/mL penicillin, 100 μg/mL streptomycin, 5 μM lovastatin), and plated in a 96 well plate by 90 μL each. A test compound diluted with the reaction medium was added by 10 μL each, and the cells were cultured overnight in an incubator. Bright-Glo (Promega) was added by 100 μL each, and the mixture was stirred at room temperature for 10 min, and the luminescence level was measured by Envision (PerkinElmer).

[3] = target: T1, RORγt; test: RORγt binding test (TR-FRET, fluorescent-labeled cholesterol); conditions: binding inhibitory rate of fluorescent-labeled cholesterol to RORγt at test compound 1 μM
Procedure: The binding activity of the test compound to RORγt was measured by a time resolved fluorescence resonance energy transfer method (TR-FRET) utilizing histidine-tagged RORγt, fluorescent-labeled cholesterol (BODIPY-cholesterol, AVIVA) and terbium-labeled anti-histidine tag antibody (Invitrogen). First, a test compound diluted with an assay buffer (20 mM Tris-HCl (pH 7.5), 100 mM NaCl, 1 mM DTT, 0.1% BSA) was added to a 384 well plate by 3 μL each. Then, RORγt diluted with an assay buffer to 240 nM was added by 3 μL each, after which fluorescent-labeled cholesterol diluted with the assay buffer to 12 μM was added by 3 μL each, and the mixture was stood at room temperature for 20 min. Thereafter, a terbium-labeled anti-histidine tag antibody diluted with the assay buffer to 8 nM was added by 3 μL each. The mixture was stood at room temperature for 20 min, and fluorescence intensity (excitation wavelength 320 nm, fluorescence wavelength 520 nm, delay time 100 microseconds) was measured by Envision (PerkinElmer).

`CCN1Cc2cc(NC(=O)CC(C)CC(=O)Nc3ccc(C#N)c(Cl)c3)ccc2N(CC)C1=O` (centres unmarked) [Example 16, N-(3-chloro-4-cyanophenyl)-N′-(1,3-diethyl-2-oxo-1,2,3,4-tetrahydroquinazolin-6-yl)-3-methylpentanediamide] was tested, and the inhibition at 1 µM [1] was 104%, the inhibition at 3 µM [2] was 117% and the inhibition at 1 µM [3] was 92.8%.
Work on `CCn1c(=O)n(COC)c(=O)c2cc(NC(=O)CC(C)CC(=O)Nc3ccc(C#N)c(Cl)c3)ccc21` (centres unmarked) [Example 19, N-(3-chloro-4-cyanophenyl)-N′-(1-ethyl-3-(methoxymethyl)-2,4-dioxo-1,2,3,4-tetrahydroquinazolin-6-yl)-3-methylpentanediamide] yielded an inhibition at 1 µM [1] of 104%, an inhibition at 3 µM [2] of 115% and an inhibition at 1 µM [3] of 99.6%.
With `CCn1c(=O)n(CCOC)c(=O)c2cc(NC(=O)CC(C)CC(=O)Nc3ccc(C#N)c(Cl)c3)ccc21` (centres unmarked) [Example 20, N-(3-chloro-4-cyanophenyl)-N′-(1-ethyl-3-(2-methoxyethyl)-2,4-dioxo-1,2,3,4-tetrahydroquinazolin-6-yl)-3-methylpentanediamide] the inhibition at 1 µM [1] was 105%, the inhibition at 3 µM [2] was 116% and the inhibition at 1 µM [3] was 101%.
For `CCn1c(=O)n(CCCOC)c(=O)c2cc(NC(=O)CC(C)CC(=O)Nc3ccc(C#N)c(Cl)c3)ccc21` (centres unmarked) [Example 21, N-(3-chloro-4-cyanophenyl)-N′-(1-ethyl-3-(3-methoxypropyl)-2,4-dioxo-1,2,3,4-tetrahydroquinazolin-6-yl)-3-methylpentanediamide], the inhibition at 1 µM [1] was 104%, the inhibition at 3 µM [2] was 118% and the inhibition at 1 µM [3] was 103%.
For `C#CCn1c(=O)c2cc(NC(=O)CC(C)CC(=O)Nc3ccc(C#N)c(Cl)c3)ccc2n(CC)c1=O` (centres unmarked) [Example 28, N-(3-chloro-4-cyanophenyl)-N′-(1-ethyl-2,4-dioxo-3-(prop-2-yn-1-yl)-1,2,3,4-tetrahydroquinazolin-6-yl)-3-methylpentanediamide], the inhibition at 1 µM [1] was 105%, the inhibition at 3 µM [2] was 115% and the inhibition at 1 µM [3] was 99.3%.
For `CCn1c(=O)n(C[Si](C)(C)C)c(=O)c2cc(NC(=O)CC(C)CC(=O)Nc3ccc(C#N)c(Cl)c3)ccc21` (centres unmarked) [Example 32, N-(3-chloro-4-cyanophenyl)-N′-(1-ethyl-2,4-dioxo-3-((trimethylsilyl)methyl)-1,2,3,4-tetrahydroquinazolin-6-yl)-3-methylpentanediamide], the inhibition at 1 µM [1] was 103%, the inhibition at 3 µM [2] was 114% and the inhibition at 1 µM [3] was 98.5%.
`CCn1c(=O)c2cc(C(=O)NCC(CC(=O)Nc3ccc(C#N)c(Cl)c3)C(C)C)ccc2n(CC)c1=O` (centres unmarked) [Example 35, N-(4-((3-chloro-4-cyanophenyl)amino)-2-isopropyl-4-oxobutyl)-1,3-diethyl-2,4-dioxo-1,2,3,4-tetrahydroquinazoline-6-carboxamide] was tested, and the “signal value inhibitory rate (%)” value ([1]; 1 µM) was 105.0%, the “luminescence level inhibitory rate (%)” value ([2]; 3 µM) was 122.0% and the “binding inhibitory rate (%)” value ([3]; 1 µM) was 102.0%.
For `CCn1c(=O)n(C2CC2)c(=O)c2cc(NC(=O)CC(C)CC(=O)Nc3ccc(C#N)c(Cl)c3)ccc21` (centres unmarked) [Example 60, N-(3-chloro-4-cyanophenyl)-N′-(3-cyclopropyl-1-ethyl-2,4-dioxo-1,2,3,4-tetrahydroquinazolin-6-yl)-3-methylpentanediamide], the inhibition at 1 µM [1] was 103%, the inhibition at 3 µM [2] was 122% and the inhibition at 1 µM [3] was 102%.
With `CCn1c(=O)n(CSC)c(=O)c2cc(NC(=O)CC(C)CC(=O)Nc3ccc(C#N)c(Cl)c3)ccc21` (centres unmarked) [Example 65, N-(3-chloro-4-cyanophenyl)-N′-(1-ethyl-3-((methylsulfanyl)methyl)-2,4-dioxo-1,2,3,4-tetrahydroquinazolin-6-yl)-3-methylpentanediamide] the inhibition at 1 µM [1] was 102%, the inhibition at 3 µM [2] was 102% and the inhibition at 1 µM [3] was 100%.
For `CCn1c(=O)c2cc(NC(=O)CC(C)CC(=O)Nc3ccc(C#N)c(Cl)c3)ccc2n(CSC)c1=O` (centres unmarked) [Example 99, N-(3-chloro-4-cyanophenyl)-N′-(3-ethyl-1-((methylsulfanyl)methyl)-2,4-dioxo-1,2,3,4-tetrahydroquinazolin-6-yl)-3-methylpentanediamide], the inhibition at 1 µM [1] was 103%, the inhibition at 3 µM [2] was 102% and the inhibition at 1 µM [3] was 95.6%.
In the case of `CC(O)(CC(=O)Nc1ccc(C#N)c(Cl)c1)CC(=O)Nc1ccc2c(c1)c(=O)n(CC1CC1)c(=O)n2CC1CC1` (centres unmarked) [Example 102, N-(1,3-bis(cyclopropylmethyl)-2,4-dioxo-1,2,3,4-tetrahydroquinazolin-6-yl)-N′-(3-chloro-4-cyanophenyl)-3-hydroxy-3-methylpentanediamide], the inhibition at 1 µM [1] is reported as 104%, the inhibition at 3 µM [2] is reported as 104% and the inhibition at 1 µM [3] is reported as 103%.
In the case of `CC(CNC(=O)c1cc2c(=O)n(CC3CC3)c(=O)n(CC3CC3)c2cn1)CC(=O)Nc1ccc(C#N)c(Cl)c1` (centres unmarked) [Example 112, N-(4-((3-chloro-4-cyanophenyl)amino)-2-methyl-4-oxobutyl)-1,3-bis(cyclopropylmethyl)-2,4-dioxo-1,2,3,4-tetrahydropyrido[3,4-d]pyrimidine-6-carboxamide], the inhibition at 1 µM [1] is reported as 100%, the inhibition at 3 µM [2] is reported as 97.7% and the inhibition at 1 µM [3] is reported as 96.6%.
In the case of `CC(CC(=O)Nc1ccc(C#N)c(Cl)c1)CC(=O)Nc1cc2c(=O)n(CC3CC3)c(=O)n(CC3CC3)c2cn1` (centres unmarked) [Example 113, N-(1,3-bis(cyclopropylmethyl)-2,4-dioxo-1,2,3,4-tetrahydropyrido[3,4-d]pyrimidin-6-yl)-N′-(3-chloro-4-cyanophenyl)-3-methylpentanediamide], the inhibition at 1 µM [1] is reported as 102%, the inhibition at 3 µM [2] is reported as 96.5% and the inhibition at 1 µM [3] is reported as 103%.
`CCn1c(=O)c2cc(NC(=O)CC(C)CC(=O)Nc3ccc(C#N)c(Cl)c3)ncc2n(CC)c1=O` (centres unmarked) [Example 124, N-(3-chloro-4-cyanophenyl)-N′-(1,3-diethyl-2,4-dioxo-1,2,3,4-tetrahydropyrido[3,4-d]pyrimidin-6-yl)-3-methylpentanediamide] was tested, and the inhibition at 1 µM [1] was 101% and the inhibition at 3 µM [2] was 100%.
Molecule `CC(C)n1c(=O)n(CC2CC2)c(=O)c2cc(NC(=O)CC(C)(O)CC(=O)Nc3ccc(C#N)c(Cl)c3)ccc21` (centres unmarked) [Example 142, N-(3-chloro-4-cyanophenyl)-N′-(3-(cyclopropylmethyl)-1-isopropyl-2,4-dioxo-1,2,3,4-tetrahydroquinazolin-6-yl)-3-hydroxy-3-methylpentanediamide] has an inhibition at 1 µM [1] of 103% and an inhibition at 3 µM [2] of 103%.
Work on `CC(CC(=O)Nc1ccc(C#N)c(Cl)c1)CC(=O)Nc1ccc2c(c1)c(=O)n(CC1CC1)c(=O)n2C(C)C` (centres unmarked) [Example 144, N-(3-chloro-4-cyanophenyl)-N′-(3-(cyclopropylmethyl)-1-isopropyl-2,4-dioxo-1,2,3,4-tetrahydroquinazolin-6-yl)-3-methylpentanediamide] yielded an inhibition at 1 µM [1] of 102% and an inhibition at 3 µM [2] of 103%.
`CC(CC(=O)Nc1ccc(C#N)c(Cl)c1)CC(=O)Nc1ccc2c(c1)C(=O)N(CC1CC1)C(=O)C21CCCC1` (centres unmarked) [Example 145, N-(3-chloro-4-cyanophenyl)-N′-(2′-(cyclopropylmethyl)-1′,3′-dioxo-2′,3′-dihydro-1′H-spiro[cyclopentane-1,4′-isoquinoline]-7′-yl)-3-methylpentanediamide] gave an inhibition at 1 µM [1] of 103% and an inhibition at 3 µM [2] of 103%.
